What was measured:
[1] = biological target: Tyrosine-protein kinase Blk (Homo sapiens) (UniProt P51451); conditions: Compound concentration 1000.0 nM
[2] = biological target: Calcium/calmodulin-dependent protein kinase type II subunit alpha (Homo sapiens) (UniProt Q9UQM7); conditions: Compound concentration 1000.0 nM
[3] = biological target: Cyclin-dependent kinase 2 (Homo sapiens) (UniProt P24941); conditions: Compound concentration 1000.0 nM
[4] = biological target: Dual specificity protein kinase CLK1 (Homo sapiens) (UniProt P49759); conditions: Compound concentration 1000.0 nM
[5] = biological target: Casein kinase I isoform epsilon (Homo sapiens) (UniProt P49674); conditions: Compound concentration 1000.0 nM
Casein kinase I isoform epsilon (Homo sapiens), sequence (P49674 whole entry, looked up, canonical isoform): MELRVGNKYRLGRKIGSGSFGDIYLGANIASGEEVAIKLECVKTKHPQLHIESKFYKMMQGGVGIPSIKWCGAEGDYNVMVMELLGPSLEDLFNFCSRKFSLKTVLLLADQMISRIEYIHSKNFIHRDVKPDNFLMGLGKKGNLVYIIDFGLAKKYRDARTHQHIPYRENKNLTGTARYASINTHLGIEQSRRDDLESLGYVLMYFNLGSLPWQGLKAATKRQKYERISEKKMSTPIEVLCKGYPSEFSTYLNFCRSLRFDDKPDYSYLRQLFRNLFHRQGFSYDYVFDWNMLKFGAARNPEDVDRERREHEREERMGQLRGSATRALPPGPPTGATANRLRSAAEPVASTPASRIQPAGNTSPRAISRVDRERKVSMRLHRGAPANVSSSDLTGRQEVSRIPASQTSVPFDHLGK

[6] = biological target: Casein kinase I isoform gamma-2 (Homo sapiens) (UniProt P78368); conditions: Compound concentration 1000.0 nM
Casein kinase I isoform gamma-2 (Homo sapiens), sequence (P78368 whole entry, looked up, canonical isoform): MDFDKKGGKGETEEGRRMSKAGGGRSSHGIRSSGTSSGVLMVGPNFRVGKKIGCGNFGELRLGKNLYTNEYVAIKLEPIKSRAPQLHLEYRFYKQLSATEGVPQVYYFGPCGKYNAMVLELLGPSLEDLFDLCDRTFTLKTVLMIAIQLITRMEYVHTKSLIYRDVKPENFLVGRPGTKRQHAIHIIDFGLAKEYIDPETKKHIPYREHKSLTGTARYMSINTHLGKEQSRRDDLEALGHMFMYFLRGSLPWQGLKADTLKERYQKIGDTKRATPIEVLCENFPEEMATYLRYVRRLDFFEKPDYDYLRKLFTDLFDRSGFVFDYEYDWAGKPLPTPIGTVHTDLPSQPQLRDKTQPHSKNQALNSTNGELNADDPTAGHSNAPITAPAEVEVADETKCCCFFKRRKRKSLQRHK

[7] = biological target: Mitogen-activated protein kinase kinase kinase 12 (Homo sapiens) (UniProt Q12852); conditions: Compound concentration 1000.0 nM
Mitogen-activated protein kinase kinase kinase 12 (Homo sapiens), sequence (Q12852 whole entry): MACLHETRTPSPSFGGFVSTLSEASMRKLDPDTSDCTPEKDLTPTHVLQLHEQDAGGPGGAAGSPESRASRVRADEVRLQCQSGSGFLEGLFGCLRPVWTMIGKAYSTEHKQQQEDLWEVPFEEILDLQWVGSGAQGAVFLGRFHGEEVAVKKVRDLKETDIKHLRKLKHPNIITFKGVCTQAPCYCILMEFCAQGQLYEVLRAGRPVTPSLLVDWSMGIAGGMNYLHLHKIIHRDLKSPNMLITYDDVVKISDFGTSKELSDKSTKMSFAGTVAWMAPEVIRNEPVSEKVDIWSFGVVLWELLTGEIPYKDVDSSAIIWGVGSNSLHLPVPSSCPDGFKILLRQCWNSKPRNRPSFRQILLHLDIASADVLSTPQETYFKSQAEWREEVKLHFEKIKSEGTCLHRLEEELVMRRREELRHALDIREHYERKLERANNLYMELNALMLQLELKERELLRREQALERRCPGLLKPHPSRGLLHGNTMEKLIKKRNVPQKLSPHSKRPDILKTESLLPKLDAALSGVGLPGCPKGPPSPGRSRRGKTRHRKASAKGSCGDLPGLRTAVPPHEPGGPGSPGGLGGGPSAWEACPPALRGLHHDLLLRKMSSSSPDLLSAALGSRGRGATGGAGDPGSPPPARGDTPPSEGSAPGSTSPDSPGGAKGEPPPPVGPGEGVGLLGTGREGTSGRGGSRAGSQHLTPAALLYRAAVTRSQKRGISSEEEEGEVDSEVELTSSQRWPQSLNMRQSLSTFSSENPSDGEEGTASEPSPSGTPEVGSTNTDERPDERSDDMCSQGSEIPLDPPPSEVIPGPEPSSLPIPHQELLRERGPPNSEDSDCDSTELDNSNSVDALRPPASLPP

[8] = biological target: Serine/threonine-protein kinase 17A (Homo sapiens) (UniProt Q9UEE5); conditions: Compound concentration 1000.0 nM
Serine/threonine-protein kinase 17A (Homo sapiens), sequence (Q9UEE5 whole entry): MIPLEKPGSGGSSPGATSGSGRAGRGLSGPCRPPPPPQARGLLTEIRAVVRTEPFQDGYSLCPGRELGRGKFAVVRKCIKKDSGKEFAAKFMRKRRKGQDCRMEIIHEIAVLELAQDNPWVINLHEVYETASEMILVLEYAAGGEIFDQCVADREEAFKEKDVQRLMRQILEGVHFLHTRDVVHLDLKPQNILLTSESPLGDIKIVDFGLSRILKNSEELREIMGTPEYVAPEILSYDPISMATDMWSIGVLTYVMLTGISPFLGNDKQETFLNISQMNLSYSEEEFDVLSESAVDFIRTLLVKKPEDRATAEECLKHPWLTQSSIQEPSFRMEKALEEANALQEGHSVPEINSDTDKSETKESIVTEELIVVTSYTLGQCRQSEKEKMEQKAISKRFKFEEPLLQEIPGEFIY

[9] = biological target: Dual specificity tyrosine-phosphorylation-regulated kinase 1A (Homo sapiens) (UniProt Q13627); conditions: Compound concentration 1000.0 nM
[10] = biological target: Dual specificity tyrosine-phosphorylation-regulated kinase 2 (Homo sapiens) (UniProt Q92630); conditions: Compound concentration 1000.0 nM
[11] = biological target: Epidermal growth factor receptor (Homo sapiens) (UniProt P00533); conditions: Compound concentration 1000.0 nM
[12] = system: Epidermal growth factor receptor (Homo sapiens), P00533 [UNDEFINED MUTATION]; conditions: Compound concentration 1000.0 nM
[13] = system: Epidermal growth factor receptor (Homo sapiens), P00533 [G719S]; conditions: Compound concentration 1000.0 nM
[14] = system: Epidermal growth factor receptor (Homo sapiens), P00533 [UNDEFINED MUTATION]; conditions: Compound concentration 1000.0 nM; remark: listed apart in the source
[15] = biological target: Ephrin type-A receptor 5 (Homo sapiens) (UniProt P54756); conditions: Compound concentration 1000.0 nM
[16] = biological target: Ephrin type-A receptor 7 (Homo sapiens) (UniProt Q15375); conditions: Compound concentration 1000.0 nM
Ephrin type-A receptor 7 (Homo sapiens), sequence (Q15375 28-998 limits assumed): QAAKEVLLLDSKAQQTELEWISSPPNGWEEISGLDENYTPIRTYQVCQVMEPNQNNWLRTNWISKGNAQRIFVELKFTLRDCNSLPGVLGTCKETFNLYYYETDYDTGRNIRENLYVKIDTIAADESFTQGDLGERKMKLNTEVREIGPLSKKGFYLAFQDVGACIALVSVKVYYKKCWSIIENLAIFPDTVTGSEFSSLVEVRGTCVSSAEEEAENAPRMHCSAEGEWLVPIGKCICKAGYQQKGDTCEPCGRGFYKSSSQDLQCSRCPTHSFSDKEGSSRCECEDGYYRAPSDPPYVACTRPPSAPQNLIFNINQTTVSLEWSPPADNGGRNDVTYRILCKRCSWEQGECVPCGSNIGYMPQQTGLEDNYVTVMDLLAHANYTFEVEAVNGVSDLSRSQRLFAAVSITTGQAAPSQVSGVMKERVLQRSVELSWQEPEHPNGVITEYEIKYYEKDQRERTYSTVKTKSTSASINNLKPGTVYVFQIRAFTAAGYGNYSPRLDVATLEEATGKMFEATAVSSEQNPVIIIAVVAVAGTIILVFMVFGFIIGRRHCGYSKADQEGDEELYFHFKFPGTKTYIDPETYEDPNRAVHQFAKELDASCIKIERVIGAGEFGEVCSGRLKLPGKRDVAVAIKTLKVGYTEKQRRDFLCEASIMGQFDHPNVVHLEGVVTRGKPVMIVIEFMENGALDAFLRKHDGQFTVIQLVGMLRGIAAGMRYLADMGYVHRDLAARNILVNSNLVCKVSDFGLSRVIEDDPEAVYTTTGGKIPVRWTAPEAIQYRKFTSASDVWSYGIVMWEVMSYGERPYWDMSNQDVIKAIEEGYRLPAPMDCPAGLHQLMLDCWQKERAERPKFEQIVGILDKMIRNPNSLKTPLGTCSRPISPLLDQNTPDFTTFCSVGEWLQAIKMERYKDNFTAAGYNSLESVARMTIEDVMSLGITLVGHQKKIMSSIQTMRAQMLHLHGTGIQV

[17] = biological target: Receptor tyrosine-protein kinase erbB-2 (Homo sapiens) (UniProt P04626); conditions: Compound concentration 1000.0 nM
[18] = biological target: Mitogen-activated protein kinase 15 (Homo sapiens) (UniProt Q8TD08); conditions: Compound concentration 1000.0 nM
[19] = biological target: Focal adhesion kinase 1 (Homo sapiens) (UniProt Q05397); conditions: Compound concentration 1000.0 nM
[20] = system: Receptor-type tyrosine-protein kinase FLT3 (Homo sapiens), P36888 [D835V]; conditions: Compound concentration 1000.0 nM
[21] = biological target: Serine/threonine-protein kinase haspin (Homo sapiens) (UniProt Q8TF76); conditions: Compound concentration 1000.0 nM
Serine/threonine-protein kinase haspin (Homo sapiens), sequence (Q8TF76 whole entry): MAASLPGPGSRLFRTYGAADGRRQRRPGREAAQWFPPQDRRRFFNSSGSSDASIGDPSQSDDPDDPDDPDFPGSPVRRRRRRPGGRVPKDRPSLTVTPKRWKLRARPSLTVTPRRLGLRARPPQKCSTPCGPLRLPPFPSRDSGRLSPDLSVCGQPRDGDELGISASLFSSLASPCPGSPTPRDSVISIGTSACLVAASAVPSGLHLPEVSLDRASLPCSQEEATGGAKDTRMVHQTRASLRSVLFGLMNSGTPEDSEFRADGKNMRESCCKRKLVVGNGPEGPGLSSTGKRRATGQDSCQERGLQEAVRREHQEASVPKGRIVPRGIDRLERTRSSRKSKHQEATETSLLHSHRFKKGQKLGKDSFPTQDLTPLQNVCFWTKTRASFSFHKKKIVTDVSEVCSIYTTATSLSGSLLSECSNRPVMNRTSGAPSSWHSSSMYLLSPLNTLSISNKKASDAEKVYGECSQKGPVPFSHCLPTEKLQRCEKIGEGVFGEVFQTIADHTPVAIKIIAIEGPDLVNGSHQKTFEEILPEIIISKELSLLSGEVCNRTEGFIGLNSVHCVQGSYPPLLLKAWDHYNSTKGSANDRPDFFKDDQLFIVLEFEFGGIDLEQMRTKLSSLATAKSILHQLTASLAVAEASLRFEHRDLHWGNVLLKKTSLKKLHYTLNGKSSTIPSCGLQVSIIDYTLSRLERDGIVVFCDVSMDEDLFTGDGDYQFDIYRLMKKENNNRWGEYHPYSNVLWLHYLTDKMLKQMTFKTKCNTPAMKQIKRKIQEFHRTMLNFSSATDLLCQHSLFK

[22] = biological target: Tyrosine-protein kinase HCK (Homo sapiens) (UniProt P08631); conditions: Compound concentration 1000.0 nM
[23] = biological target: Mitogen-activated protein kinase 8 (Homo sapiens) (UniProt P45983); conditions: Compound concentration 1000.0 nM
[24] = biological target: Mast/stem cell growth factor receptor Kit (Homo sapiens) (UniProt P10721); conditions: Compound concentration 1000.0 nM
[25] = biological target: Tyrosine-protein kinase Lck (Homo sapiens) (UniProt P06239); conditions: Compound concentration 1000.0 nM
[26] = biological target: LIM domain kinase 1 (Homo sapiens) (UniProt P53667); conditions: Compound concentration 1000.0 nM
[27] = biological target: Leukocyte tyrosine kinase receptor (Homo sapiens) (UniProt P29376); conditions: Compound concentration 1000.0 nM
[28] = biological target: MAP/microtubule affinity-regulating kinase 4 (Homo sapiens) (UniProt Q96L34); conditions: Compound concentration 1000.0 nM
[29] = biological target: Dual specificity mitogen-activated protein kinase kinase 6 (Homo sapiens) (UniProt P52564); conditions: Compound concentration 1000.0 nM
[30] = biological target: Tyrosine-protein kinase Mer (Homo sapiens) (UniProt Q12866); conditions: Compound concentration 1000.0 nM
[31] = system: Hepatocyte growth factor receptor (Homo sapiens), P08581 [M1250T]; conditions: Compound concentration 1000.0 nM
[32] = biological target: Myosin light chain kinase family member 4 (Homo sapiens) (UniProt Q86YV6); conditions: Compound concentration 1000.0 nM
Myosin light chain kinase family member 4 (Homo sapiens), sequence (Q86YV6 whole entry): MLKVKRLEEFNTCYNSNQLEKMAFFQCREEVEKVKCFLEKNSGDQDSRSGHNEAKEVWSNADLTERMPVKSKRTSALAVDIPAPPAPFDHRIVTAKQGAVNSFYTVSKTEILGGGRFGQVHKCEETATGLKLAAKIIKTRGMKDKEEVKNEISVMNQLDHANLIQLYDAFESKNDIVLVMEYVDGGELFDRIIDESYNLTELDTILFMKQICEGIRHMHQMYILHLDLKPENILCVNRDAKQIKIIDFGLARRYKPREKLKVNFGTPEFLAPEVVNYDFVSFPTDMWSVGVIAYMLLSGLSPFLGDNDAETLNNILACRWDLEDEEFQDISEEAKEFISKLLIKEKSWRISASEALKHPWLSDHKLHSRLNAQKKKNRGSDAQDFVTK

[33] = biological target: Serine/threonine-protein kinase NIM1 (Homo sapiens) (UniProt Q8IY84); conditions: Compound concentration 1000.0 nM
[34] = biological target: Serine/threonine-protein kinase pim-3 (Homo sapiens) (UniProt Q86V86); conditions: Compound concentration 1000.0 nM
[35] = biological target: Interferon-induced, double-stranded RNA-activated protein kinase (Homo sapiens) (UniProt P19525); conditions: Compound concentration 1000.0 nM
[36] = system: Proto-oncogene tyrosine-protein kinase receptor Ret (Homo sapiens), P07949 [M918T]; conditions: Compound concentration 1000.0 nM
[37] = biological target: Serine/threonine-protein kinase RIO3 (Homo sapiens) (UniProt O14730); conditions: Compound concentration 1000.0 nM
[38] = biological target: Receptor-interacting serine/threonine-protein kinase 4 (Homo sapiens) (UniProt P57078); conditions: Compound concentration 1000.0 nM
[39] = biological target: Ribosomal protein S6 kinase alpha-1 (Homo sapiens) (UniProt Q15418); conditions: Compound concentration 1000.0 nM
Ribosomal protein S6 kinase alpha-1 (Homo sapiens), sequence (Q15418 whole entry): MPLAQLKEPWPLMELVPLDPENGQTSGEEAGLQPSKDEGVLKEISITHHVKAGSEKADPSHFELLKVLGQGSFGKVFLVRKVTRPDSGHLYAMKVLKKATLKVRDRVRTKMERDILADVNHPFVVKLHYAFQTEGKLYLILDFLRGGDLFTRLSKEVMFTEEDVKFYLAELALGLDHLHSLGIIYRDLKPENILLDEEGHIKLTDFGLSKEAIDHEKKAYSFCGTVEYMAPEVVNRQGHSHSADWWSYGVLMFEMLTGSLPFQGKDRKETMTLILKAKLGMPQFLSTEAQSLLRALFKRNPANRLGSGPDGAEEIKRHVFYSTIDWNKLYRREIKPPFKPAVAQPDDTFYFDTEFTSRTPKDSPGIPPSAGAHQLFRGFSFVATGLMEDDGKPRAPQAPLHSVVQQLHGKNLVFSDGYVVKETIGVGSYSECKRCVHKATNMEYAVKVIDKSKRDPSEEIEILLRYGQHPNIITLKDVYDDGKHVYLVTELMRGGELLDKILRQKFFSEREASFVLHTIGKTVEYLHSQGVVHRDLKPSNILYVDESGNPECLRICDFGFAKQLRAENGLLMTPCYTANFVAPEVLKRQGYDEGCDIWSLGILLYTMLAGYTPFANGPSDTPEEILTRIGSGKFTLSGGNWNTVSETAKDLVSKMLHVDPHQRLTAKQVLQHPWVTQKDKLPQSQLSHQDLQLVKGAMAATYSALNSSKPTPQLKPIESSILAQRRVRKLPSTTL

[40] = biological target: STE20/SPS1-related proline-alanine-rich protein kinase (Homo sapiens) (UniProt Q9UEW8); conditions: Compound concentration 1000.0 nM
[41] = biological target: Serine/threonine-protein kinase TBK1 (Homo sapiens) (UniProt Q9UHD2); conditions: Compound concentration 1000.0 nM
[42] = biological target: Tyrosine-protein kinase receptor Tie-1 (Homo sapiens) (UniProt P35590); conditions: Compound concentration 1000.0 nM
[43] = biological target: Alpha-2C adrenergic receptor (Homo sapiens) (UniProt P18825); conditions: Compound concentration 10.0 uM
[44] = biological target: Muscarinic acetylcholine receptor M4 (Homo sapiens) (UniProt P08173); conditions: Compound concentration 10.0 uM
[45] = biological target: Muscarinic acetylcholine receptor M5 (Homo sapiens) (UniProt P08912); conditions: Compound concentration 10.0 uM

Cc1c(NC(=O)c2cc(C(N)=O)nc3cc(F)ccc23)c(C(F)(F)F)nn1Cc1ccc(C(C)(C)C)cc1 [BAY-588]
inactive: residual activity [1] 72% | residual activity [2] 89% | residual activity [3] 88% | residual activity [4] 62% | residual activity [5] 91% | residual activity [6] 100% | residual activity [7] 100% | residual activity [8] 79% | residual activity [9] 100% | residual activity [10] 88% | residual activity [11] 100% | residual activity [12] 100% | residual activity [13] 78% | residual activity [14] 96% | residual activity [15] 74% | residual activity [16] 100% | residual activity [17] 92% | residual activity [18] 56% | residual activity [19] 100% | residual activity [20] 100% | residual activity [21] 100% | residual activity [22] 92% | residual activity [23] 100% | residual activity [24] 100% | residual activity [25] 100% | residual activity [26] 100% | residual activity [27] 83% | residual activity [28] 97% | residual activity [29] 92% | residual activity [30] 86% | residual activity [31] 88% | residual activity [32] 100% | residual activity [33] 100% | residual activity [34] 100% | residual activity [35] 100% | residual activity [36] 96% | residual activity [37] 97% | residual activity [38] 100% | residual activity [39] 100% | residual activity [40] 100% | residual activity [41] 95% | residual activity [42] 100% | inhibition [43] 2.11% | inhibition [44] 8.69% | inhibition [45] 7.12%

Cc1c(NC(=O)c2cc(C(N)=O)nc3cc(F)ccc23)c(C(F)(F)F)nn1Cc1ccc(C#N)cc1 [BAY-876]
inactive: residual activity [1] 77% | residual activity [2] 100% | residual activity [3] 91% | residual activity [4] 86% | residual activity [5] 100% | residual activity [6] 88% | residual activity [7] 89% | residual activity [8] 90% | residual activity [9] 84% | residual activity [10] 88% | residual activity [11] 100% | residual activity [12] 59% | residual activity [13] 86% | residual activity [14] 61% | residual activity [15] 100% | residual activity [16] 86% | residual activity [17] 100% | residual activity [18] 100% | residual activity [19] 96% | residual activity [20] 100% | residual activity [21] 67% | residual activity [22] 69% | residual activity [23] 80% | residual activity [24] 72% | residual activity [25] 98% | residual activity [26] 78% | residual activity [27] 82% | residual activity [28] 100% | residual activity [29] 100% | residual activity [30] 100% | residual activity [31] 91% | residual activity [32] 90% | residual activity [33] 91% | residual activity [34] 100% | residual activity [35] 100% | residual activity [36] 96% | residual activity [37] 75% | residual activity [38] 92% | residual activity [39] 78% | residual activity [40] 94% | residual activity [41] 70% | residual activity [42] 81% | inhibition [43] -0.745% | inhibition [44] -4.15% | inhibition [45] 4.88%

Reference: ChEMBL document CHEMBL4507267 (2021)
